For series [1], the target named is Vascular endothelial growth factor receptor 3 (Homo sapiens, UniProt P35916). As to the kind of experiment: Inhibition of human FLT4 using poly[Glu:Tyr] (4:1) as substrate in presence of [gamma-33P]-ATP by scintillation counting method.
For series [2], the target named is Vascular endothelial growth factor receptor 2 (Homo sapiens, UniProt P35968). Put plainly: Inhibition of human KDR using poly[Glu:Tyr] (4:1) as substrate in presence of [gamma-33P]-ATP by scintillation counting method.
Series [3] deals with Dual specificity mitogen-activated protein kinase kinase 6 (Homo sapiens, UniProt P52564). As to the kind of experiment: Inhibition of human MKK6 using p38a as substrate in presence of [gamma-33P]-ATP by scintillation counting method.
The target of series [4] is Dual specificity mitogen-activated protein kinase kinase 2 (Homo sapiens, UniProt P36507). Put plainly: Inhibition of human MEK2 using ERK2 as substrate in presence of [gamma-33P]-ATP by scintillation counting method.
Series [5] addresses Receptor-type tyrosine-protein kinase FLT3 (Homo sapiens, UniProt P36888). As to the kind of experiment: Inhibition of human FLT3 using EAIYAAPFAKKK peptide as substrate in presence of [gamma-33P]-ATP by scintillation counting method.
Series [6] deals with T1, Activin receptor type-1-like (Homo sapiens, UniProt P37023). As to the kind of experiment: Inhibition of human ALK1 using casein as substrate in presence of [gamma-33P]-ATP by scintillation counting method.
The target in series [7] is Dual specificity mitogen-activated protein kinase kinase 6 (Homo sapiens) (UniProt P52564). As to the kind of experiment: Inhibition of human MKK6 at 1 uM using p38a as substrate in presence of [gamma-33P]-ATP by scintillation counting method relative to control.
Series [8] has as its target T2, Activin receptor type-1-like (Mus musculus) (UniProt Q61288).
T2 sequence (whole entry): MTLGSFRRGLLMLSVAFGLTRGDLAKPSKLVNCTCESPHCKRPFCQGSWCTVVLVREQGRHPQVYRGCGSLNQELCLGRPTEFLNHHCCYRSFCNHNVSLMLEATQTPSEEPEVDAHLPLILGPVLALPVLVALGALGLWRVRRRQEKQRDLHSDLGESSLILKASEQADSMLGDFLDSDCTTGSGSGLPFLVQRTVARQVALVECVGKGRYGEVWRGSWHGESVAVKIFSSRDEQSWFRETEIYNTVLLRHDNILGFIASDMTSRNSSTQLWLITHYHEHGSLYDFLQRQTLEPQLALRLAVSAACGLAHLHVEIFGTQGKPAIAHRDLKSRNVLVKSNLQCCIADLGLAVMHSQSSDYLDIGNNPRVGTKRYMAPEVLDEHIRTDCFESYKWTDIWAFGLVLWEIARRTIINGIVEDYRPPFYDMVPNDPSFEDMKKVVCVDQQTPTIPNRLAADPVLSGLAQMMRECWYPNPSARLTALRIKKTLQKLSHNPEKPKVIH
Put plainly: Inhibition of BMP9-stimulated ALK1 in mouse C2C12 cells assessed as reduction in Smad1/5 phosphorylation at 0.1 to 10 uM pretreated for 2 hrs followed by BMP9-stimulation after 30 mins by western blot analysis. In kind it is cell-based. (In western blotting, separated proteins are transferred to a membrane and probed.)

In series [9] the target is T2, Activin receptor type-1-like (Mus musculus). As to the kind of experiment: Inhibition of BMP9-stimulated ALK1 in mouse C2C12 cells assessed as decrease in p38 phosphorylation at 0.1 to 10 uM pretreated for 2 hrs followed by BMP9-stimulation after 30 mins by western blot analysis. It is filed as cell-based.
The target is the same in series [10]. As to the kind of experiment: Inhibition of BMP9-stimulated ALK1 in mouse C2C12 cells assessed as decrease in ERK1/2 phosphorylation at 0.1 to 10 uM pretreated for 2 hrs followed by BMP9-stimulation after 30 mins by western blot analysis. It is filed as cell-based.
Series [11] shares this target. As to the kind of experiment: Inhibition of BMP9-stimulated ALK1 in mouse C2C12 cells assessed as decrease in MEK phosphorylation at 0.1 to 10 uM pretreated for 2 hrs followed by BMP9-stimulation after 30 mins by western blot analysis. It is filed as cell-based.
The target of series [12] is T3, TGF-beta receptor type-1 (Mus musculus, UniProt Q64729).
T3 sequence (Q64729 whole entry): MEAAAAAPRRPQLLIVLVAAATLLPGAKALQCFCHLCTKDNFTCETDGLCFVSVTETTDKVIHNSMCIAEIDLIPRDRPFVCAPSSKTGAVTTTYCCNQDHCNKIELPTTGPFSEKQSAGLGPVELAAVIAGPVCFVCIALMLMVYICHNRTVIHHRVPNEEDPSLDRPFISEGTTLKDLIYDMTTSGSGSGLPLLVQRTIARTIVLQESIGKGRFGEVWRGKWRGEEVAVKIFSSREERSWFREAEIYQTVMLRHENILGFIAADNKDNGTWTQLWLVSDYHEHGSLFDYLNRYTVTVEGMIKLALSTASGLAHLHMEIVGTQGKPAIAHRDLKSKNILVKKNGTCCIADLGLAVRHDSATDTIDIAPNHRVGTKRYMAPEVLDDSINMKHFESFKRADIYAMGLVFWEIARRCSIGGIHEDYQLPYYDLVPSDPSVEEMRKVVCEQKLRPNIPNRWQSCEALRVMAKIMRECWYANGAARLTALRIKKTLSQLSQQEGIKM
As to the kind of experiment: Inhibition of ALK5 in mouse C2C12 cells assessed as decrease in TGFbeta1-induced Smad2/3 phosphorylation at 0.1 to 10 uM by Western blot method. It is filed as cell-based.

The target of series [13] is T3, TGF-beta receptor type-1. Put plainly: Inhibition of ALK5 in mouse C2C12 assessed as decrease in TGFbeta1-induced Smad1/5 phosphorylation at 0.1 to 10 uM by Western blot method.
Series [14] concerns the target Mitogen-activated protein kinase kinase kinase 7 (Homo sapiens) (UniProt O43318). As to conditions: 1 uM.
Description: Inhibition of human TAK1 at 1 uM using casein as substrate in presence of [gamma-33P]-ATP by scintillation counting method relative to control
Series [15] concerns the target MAP kinase-interacting serine/threonine-protein kinase 2 (Homo sapiens) (UniProt Q9HBH9). As to conditions: 1 uM.
Description: Inhibition of human MNK2 at 1 uM using myelin basic protein as substrate in presence of [gamma-33P]-ATP by scintillation counting method relative to control
For series [16], the target named is MAP kinase-interacting serine/threonine-protein kinase 1 (Homo sapiens) (UniProt Q9BUB5). As to conditions: 1 uM.
Description: Inhibition of human MNK1 at 1 uM using myelin basic protein as substrate in presence of [gamma-33P]-ATP by scintillation counting method relative to control
Series [17] concerns the target Mitogen-activated protein kinase kinase kinase 20 (Homo sapiens) (UniProt Q9NYL2). As to conditions: 1 uM.
Description: Inhibition of human ZAK at 1 uM using myelin basic protein as substrate in presence of [gamma-33P]-ATP by scintillation counting method relative to control
The target of series [18] is TGF-beta receptor type-2 (Homo sapiens) (UniProt P37173). The conditions noted are these: 1 uM.
Description: Inhibition of human TGFbetaR2 at 1 uM using myelin basic protein as substrate in presence of [gamma-33P]-ATP by scintillation counting method relative to control
Series [19] deals with Dual specificity mitogen-activated protein kinase kinase 4 (Homo sapiens) (UniProt P45985). The conditions noted are these: 1 uM.
Description: Inhibition of human MKK4 at 1 uM using JNK1 as substrate in presence of [gamma-33P]-ATP by scintillation counting method relative to control
Series [20] addresses T1, Activin receptor type-1-like. As to conditions: 0.1 to 10 uM.
Description: Inhibition of ALK1 in human A375 cells assessed as decrease in MEK1/2 phosphorylation at 0.1 to 10 uM by western blot analysis
Series [21] deals with T2, Activin receptor type-1-like (Mus musculus). As to the kind of experiment: Inhibition of BMP9-stimulated ALK1 in mouse C2C12 cells assessed as reduction in Smad1/5 phosphorylation at 10 uM pretreated for 2 hrs followed by BMP9-stimulation after 30 mins by western blot analysis relative to control. In kind it is cell-based.
The target of series [22] is T3, TGF-beta receptor type-1. Put plainly: Inhibition of ALK5 in mouse C2C12 cells assessed as decrease in TGFbeta1-induced Smad1/5 phosphorylation at 0.1 uM by Western blot method. In kind it is cell-based.
In series [23] the target is T1, Activin receptor type-1-like. Put plainly: Inhibition of human ALK1 at 10 uM using casein as substrate in presence of [gamma-33P]-ATP by scintillation counting method relative to control.

Activity calls are given as the source filed them. No cut-off for these calls is given here.

T1 sequence (P37023 whole entry): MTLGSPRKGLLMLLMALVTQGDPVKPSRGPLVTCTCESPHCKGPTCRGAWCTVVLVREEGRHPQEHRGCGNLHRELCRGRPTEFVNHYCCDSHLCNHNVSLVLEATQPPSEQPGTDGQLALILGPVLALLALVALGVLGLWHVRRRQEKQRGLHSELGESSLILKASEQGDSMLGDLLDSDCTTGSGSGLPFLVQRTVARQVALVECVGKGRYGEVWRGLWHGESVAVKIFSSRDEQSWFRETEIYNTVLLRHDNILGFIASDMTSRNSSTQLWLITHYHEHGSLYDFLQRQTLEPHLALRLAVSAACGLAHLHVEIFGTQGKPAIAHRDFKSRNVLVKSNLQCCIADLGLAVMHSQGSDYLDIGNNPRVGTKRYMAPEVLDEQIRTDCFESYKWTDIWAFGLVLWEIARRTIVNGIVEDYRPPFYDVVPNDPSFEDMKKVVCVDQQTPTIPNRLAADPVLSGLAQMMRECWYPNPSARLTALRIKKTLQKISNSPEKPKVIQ
Sequence of Mitogen-activated protein kinase kinase kinase 20 (Homo sapiens) (Q9NYL2 2-800 limits assumed): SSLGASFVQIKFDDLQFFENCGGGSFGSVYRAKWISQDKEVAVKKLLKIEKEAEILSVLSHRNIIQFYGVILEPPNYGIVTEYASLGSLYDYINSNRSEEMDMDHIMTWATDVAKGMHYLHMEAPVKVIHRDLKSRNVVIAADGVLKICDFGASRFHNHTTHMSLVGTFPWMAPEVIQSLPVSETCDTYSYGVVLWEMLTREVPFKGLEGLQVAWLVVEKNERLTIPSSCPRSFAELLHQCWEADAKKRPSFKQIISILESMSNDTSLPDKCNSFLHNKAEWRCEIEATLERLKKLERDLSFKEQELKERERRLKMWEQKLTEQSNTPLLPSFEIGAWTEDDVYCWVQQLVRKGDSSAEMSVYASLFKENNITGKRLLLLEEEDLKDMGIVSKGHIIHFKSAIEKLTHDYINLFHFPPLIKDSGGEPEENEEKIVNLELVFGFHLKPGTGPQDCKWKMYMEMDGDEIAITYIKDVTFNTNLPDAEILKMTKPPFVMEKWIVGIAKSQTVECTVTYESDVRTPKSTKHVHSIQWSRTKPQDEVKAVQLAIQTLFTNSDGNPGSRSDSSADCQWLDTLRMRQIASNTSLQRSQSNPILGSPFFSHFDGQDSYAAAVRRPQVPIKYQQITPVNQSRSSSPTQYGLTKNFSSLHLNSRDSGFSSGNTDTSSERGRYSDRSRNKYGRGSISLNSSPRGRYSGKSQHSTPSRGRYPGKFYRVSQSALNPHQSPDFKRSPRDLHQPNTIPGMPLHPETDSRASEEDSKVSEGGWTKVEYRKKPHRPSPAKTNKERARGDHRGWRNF
Sequence of Dual specificity mitogen-activated protein kinase kinase 6 (P52564 whole entry): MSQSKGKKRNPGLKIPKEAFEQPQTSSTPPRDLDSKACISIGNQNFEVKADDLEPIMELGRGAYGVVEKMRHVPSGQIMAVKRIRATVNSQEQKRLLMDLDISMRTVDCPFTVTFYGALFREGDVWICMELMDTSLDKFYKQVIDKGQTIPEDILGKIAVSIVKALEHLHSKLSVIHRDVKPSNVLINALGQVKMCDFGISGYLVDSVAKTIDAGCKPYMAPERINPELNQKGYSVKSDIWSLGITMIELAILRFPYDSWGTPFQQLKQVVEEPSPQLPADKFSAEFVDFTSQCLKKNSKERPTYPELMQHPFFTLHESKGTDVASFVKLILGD
Sequence of Dual specificity mitogen-activated protein kinase kinase 6 (Homo sapiens) (P52564 whole entry): as above
Sequence of Dual specificity mitogen-activated protein kinase kinase 4 (Homo sapiens) (P45985 whole entry): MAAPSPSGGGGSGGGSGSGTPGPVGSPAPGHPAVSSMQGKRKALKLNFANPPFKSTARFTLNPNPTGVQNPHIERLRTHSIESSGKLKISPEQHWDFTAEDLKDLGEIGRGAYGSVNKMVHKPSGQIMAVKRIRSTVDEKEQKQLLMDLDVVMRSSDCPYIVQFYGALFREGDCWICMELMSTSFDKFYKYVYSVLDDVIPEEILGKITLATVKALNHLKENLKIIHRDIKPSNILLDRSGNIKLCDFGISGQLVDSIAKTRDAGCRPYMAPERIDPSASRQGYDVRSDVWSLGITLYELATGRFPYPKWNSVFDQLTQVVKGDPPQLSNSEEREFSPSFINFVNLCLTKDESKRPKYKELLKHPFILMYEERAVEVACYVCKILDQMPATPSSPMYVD
Sequence of MAP kinase-interacting serine/threonine-protein kinase 1 (Homo sapiens) (Q9BUB5 whole entry, looked up): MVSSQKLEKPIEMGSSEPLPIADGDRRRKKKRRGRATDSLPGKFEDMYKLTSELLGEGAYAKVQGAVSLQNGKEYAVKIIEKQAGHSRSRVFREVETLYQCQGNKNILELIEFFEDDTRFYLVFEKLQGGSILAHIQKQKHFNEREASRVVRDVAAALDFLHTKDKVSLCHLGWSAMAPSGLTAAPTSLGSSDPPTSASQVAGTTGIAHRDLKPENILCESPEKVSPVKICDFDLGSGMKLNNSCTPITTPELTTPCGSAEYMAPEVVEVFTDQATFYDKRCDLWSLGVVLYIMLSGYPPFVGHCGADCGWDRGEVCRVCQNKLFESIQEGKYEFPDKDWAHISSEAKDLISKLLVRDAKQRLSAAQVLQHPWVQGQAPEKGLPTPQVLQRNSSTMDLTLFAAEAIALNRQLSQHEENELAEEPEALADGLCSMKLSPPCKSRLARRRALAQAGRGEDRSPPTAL
Sequence of Dual specificity mitogen-activated protein kinase kinase 2 (P36507 whole entry): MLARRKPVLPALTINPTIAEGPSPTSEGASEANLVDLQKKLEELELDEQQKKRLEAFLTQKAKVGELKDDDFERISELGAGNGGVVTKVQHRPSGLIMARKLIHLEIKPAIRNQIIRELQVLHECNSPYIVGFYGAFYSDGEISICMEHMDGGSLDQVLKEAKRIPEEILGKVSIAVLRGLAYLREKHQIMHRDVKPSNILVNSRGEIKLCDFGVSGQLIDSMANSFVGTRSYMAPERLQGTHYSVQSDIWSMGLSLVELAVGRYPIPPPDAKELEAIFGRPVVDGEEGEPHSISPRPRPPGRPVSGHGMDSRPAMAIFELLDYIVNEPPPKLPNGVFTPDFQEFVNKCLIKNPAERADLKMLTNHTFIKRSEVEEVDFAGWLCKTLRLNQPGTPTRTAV
Sequence of Vascular endothelial growth factor receptor 3 (P35916 whole entry): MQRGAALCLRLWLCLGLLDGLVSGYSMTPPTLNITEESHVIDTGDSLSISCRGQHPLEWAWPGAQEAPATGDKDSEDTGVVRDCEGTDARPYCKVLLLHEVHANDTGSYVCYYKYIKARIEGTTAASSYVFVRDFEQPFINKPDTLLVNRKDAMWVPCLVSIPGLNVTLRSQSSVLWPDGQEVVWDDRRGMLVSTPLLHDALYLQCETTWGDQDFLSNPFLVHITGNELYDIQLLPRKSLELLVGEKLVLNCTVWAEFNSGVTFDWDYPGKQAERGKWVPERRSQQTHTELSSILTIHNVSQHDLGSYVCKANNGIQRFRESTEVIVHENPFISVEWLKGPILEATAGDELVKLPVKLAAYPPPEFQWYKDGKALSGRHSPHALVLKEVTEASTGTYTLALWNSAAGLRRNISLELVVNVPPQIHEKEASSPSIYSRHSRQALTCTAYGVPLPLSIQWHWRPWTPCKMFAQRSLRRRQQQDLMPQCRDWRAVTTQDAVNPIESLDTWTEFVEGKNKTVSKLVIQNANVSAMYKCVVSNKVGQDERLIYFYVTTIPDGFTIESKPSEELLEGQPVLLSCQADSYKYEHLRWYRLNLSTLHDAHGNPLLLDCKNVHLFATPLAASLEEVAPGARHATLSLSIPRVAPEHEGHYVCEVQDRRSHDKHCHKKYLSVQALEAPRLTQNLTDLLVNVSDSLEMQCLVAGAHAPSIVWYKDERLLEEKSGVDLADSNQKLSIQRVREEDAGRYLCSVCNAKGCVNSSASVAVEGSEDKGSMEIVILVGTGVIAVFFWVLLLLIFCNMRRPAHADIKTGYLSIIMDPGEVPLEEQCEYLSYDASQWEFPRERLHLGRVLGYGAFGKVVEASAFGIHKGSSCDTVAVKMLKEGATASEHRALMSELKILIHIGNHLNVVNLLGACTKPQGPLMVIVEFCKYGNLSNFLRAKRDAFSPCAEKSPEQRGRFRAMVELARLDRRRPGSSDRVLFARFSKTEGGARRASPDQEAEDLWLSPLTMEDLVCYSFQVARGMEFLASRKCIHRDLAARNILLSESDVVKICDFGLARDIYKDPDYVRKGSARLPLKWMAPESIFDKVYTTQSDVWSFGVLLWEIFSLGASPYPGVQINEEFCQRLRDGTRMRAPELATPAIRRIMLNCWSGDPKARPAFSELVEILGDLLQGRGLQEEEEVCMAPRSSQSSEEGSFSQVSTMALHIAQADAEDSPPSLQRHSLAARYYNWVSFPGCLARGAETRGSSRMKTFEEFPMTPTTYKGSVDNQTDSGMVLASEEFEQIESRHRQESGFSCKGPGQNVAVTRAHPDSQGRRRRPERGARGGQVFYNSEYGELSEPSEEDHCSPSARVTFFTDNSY
Sequence of Mitogen-activated protein kinase kinase kinase 7 (Homo sapiens) (O43318 whole entry): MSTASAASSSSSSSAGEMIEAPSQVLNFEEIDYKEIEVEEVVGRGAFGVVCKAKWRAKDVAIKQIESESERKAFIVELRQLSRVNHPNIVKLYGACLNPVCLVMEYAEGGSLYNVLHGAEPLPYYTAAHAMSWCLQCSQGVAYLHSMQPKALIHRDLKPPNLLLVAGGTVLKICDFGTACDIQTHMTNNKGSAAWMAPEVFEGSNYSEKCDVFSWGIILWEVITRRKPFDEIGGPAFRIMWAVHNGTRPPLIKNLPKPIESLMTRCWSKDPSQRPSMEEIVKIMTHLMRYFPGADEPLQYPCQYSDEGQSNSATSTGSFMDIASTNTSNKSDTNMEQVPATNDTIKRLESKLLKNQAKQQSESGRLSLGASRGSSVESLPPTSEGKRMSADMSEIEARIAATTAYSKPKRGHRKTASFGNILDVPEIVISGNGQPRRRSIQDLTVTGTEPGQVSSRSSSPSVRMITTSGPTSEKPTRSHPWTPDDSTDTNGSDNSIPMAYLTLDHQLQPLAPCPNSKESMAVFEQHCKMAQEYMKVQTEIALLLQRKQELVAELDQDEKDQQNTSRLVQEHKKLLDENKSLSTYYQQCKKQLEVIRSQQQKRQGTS

On to `COc1cc(O)c2c(c1)CCC[C@H](O)[C@H](O)C(=O)/C=C\C[C@H](C)OC2=O`, for which the IC50 in series [1] was found to be 1.13 nM; in series [2] it was 6.34 nM; in series [3], 388 nM; in [4], 8.16 nM; in series [5], 1.59 nM; in [6], 125 nM. Further, the inhibition in [7], in series [14], in [15], in series [16], in series [17] and in [18] was over 80% in each case. In series [19], this compound returned an inhibition of over 80%. In addition, the inhibition result in [8], in series [9], in [10], in series [11] and in [20] was “Active” throughout. For the same compound, the “inhibition (INH)” value at TGF-beta receptor type-1 [12] and on TGF-beta receptor type-1 [13] was “Active” each time.

`C=C1CCC[C@H](C)OC(=O)c2c(O)cc(OC)cc2CCC[C@H](O)[C@@H]1O`: the half-maximal inhibitory concentration (IC50) in series [6] was found to be 1260 nM. In addition, the inhibition in series [21] was in the range of 70 to 80%.

`COc1cc(O)c2c(c1)CCC[C@H](O)[C@H](O)[C@@H](O)CCC[C@H](C)OC2=O`: the IC50 in [6] is 770 nM. In series [21], the inhibition was 70 to 80%.

As to `c1ccc2c(-c3cnn4cc(-c5ccc(N6CCNCC6)cc5)cnc34)ccnc2c1`, at TGF-beta receptor type-1 [22], the “inhibition (INH)” value is reported as “Active”.

For `COc1cc(O)c2c(c1)CCC[C@H](O)[C@H](O)C(=O)NCC[C@H](C)OC2=O`, the inhibition in series [23] is under 40%. The inhibition result in series [21] was “inactive”.

With `COc1cc(O)c2c(c1)CCC[C@H](O)[C@H](O)[C@H](O)CCC[C@H](C)OC2=O`, in series [6], the half-maximal inhibitory concentration (IC50) was 1780 nM. Besides, the inhibition result in series [21] is “Active”.

A word on the IC50: it is the concentration at which inhibition is half-maximal. Broadly, the inhibition is the percentage by which the read-out fell short of the control.
